From patent US10870647B2, “Imidazopyridine derivative, method for preparing same, and pharmaceutical composition containing same as active ingredient for preventing or treating cancer” (DAEGU-GYEONGBUK MEDICAL INNOVATION FOUNDATION, priority 2016, dated 2020)
Like-named read-outs stand apart in the source and are kept apart here.

Key:
[1] = molecular target: T1, scanMAX Kinase assay panel (Homo sapiens, UniProt P23458); test: Kinase selectivity, scanMAX Kinase assay panel (DiscoverX), % control at 1 uM; type: binding; settings: 1 uM, read-out: Percent Control (%)
T1 construct: purchased DiscoverX
T1 sequence (P23458 whole entry): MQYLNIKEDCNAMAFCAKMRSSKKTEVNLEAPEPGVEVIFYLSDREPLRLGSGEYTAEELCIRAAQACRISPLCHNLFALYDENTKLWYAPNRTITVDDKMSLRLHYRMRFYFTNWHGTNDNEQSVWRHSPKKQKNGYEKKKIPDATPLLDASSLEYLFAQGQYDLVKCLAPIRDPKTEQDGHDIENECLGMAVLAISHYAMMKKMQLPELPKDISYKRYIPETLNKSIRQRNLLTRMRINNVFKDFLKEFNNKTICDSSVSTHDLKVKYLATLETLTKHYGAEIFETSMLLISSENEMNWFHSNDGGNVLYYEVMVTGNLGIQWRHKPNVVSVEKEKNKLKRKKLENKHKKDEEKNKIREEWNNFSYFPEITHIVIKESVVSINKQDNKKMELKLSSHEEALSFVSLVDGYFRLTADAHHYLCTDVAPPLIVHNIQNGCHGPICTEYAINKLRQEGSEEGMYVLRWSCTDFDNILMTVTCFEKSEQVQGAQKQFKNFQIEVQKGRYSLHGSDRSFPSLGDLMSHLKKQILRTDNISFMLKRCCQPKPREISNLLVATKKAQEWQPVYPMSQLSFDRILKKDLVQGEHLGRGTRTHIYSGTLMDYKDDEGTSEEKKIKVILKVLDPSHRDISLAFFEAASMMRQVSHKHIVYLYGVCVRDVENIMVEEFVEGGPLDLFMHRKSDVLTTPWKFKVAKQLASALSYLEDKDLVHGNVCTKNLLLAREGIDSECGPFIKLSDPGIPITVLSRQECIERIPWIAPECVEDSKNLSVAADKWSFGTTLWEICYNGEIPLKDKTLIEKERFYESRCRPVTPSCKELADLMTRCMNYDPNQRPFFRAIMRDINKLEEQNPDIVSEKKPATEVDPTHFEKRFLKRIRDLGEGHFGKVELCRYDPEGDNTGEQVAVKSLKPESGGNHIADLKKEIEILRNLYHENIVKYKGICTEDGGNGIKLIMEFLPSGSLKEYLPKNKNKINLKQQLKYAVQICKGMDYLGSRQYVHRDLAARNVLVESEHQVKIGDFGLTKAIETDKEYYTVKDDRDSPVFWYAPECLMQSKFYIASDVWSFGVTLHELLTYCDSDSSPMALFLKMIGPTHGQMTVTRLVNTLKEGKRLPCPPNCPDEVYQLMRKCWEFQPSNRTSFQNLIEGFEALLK
Experimental: (§1) The following experiment was performed to evaluate the inhibitory activity of the compound of the present invention on more enzymes.
(§2) Particularly, among the compounds of the present invention, the compounds of Example 1, Example 12 and Example 78 were selected and assigned to DiscoverX to measure the kinase selectivity. The experiment was performed by using scanMAX™ Kinase assay panel.
(§3) At this time, the concentration of the drug to be treated to the enzyme was adjusted to 1 uM in DMSO, and the control percentage (% control) was determined according to the following Equation 1. [Example Compound−Positive Control/Negative Control−Positive Control]×100 [Equation 1]
(§4) The enzyme selectivity of the compound of the present invention was judged to be active for the enzyme if the % control was <35 (i.e. less than 35%) for each enzyme.

[2] = molecular target: T2, scanMAX Kinase assay panel (Homo sapiens, UniProt Q6PHR2); test: as above; type: binding; settings: ULK3; 1 uM; read-out: Percent Control (%)
T2 construct: purchased DiscoverX
T2 sequence (Q6PHR2 1-472): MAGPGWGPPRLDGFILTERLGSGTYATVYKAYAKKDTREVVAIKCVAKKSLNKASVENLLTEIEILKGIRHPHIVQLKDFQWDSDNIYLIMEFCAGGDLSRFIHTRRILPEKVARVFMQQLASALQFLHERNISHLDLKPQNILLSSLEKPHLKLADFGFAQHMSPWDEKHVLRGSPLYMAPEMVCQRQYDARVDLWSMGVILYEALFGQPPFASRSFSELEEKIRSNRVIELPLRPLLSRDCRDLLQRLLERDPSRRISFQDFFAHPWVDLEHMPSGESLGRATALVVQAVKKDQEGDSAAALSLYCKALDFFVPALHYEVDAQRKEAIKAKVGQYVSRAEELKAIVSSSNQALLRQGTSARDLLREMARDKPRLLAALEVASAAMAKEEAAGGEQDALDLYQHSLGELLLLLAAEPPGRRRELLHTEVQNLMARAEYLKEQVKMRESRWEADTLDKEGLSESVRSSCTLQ
Experimental: as §1, §2, §3, §4

[3] = molecular target: T3, scanMAX Kinase assay panel (Homo sapiens, UniProt Q13131); test: as above; type: binding; settings: AMPK-alpha1; 1 uM; read-out: Percent Control (%)
T3 construct: purchased DiscoverX
T3 sequence (Q13131 whole entry): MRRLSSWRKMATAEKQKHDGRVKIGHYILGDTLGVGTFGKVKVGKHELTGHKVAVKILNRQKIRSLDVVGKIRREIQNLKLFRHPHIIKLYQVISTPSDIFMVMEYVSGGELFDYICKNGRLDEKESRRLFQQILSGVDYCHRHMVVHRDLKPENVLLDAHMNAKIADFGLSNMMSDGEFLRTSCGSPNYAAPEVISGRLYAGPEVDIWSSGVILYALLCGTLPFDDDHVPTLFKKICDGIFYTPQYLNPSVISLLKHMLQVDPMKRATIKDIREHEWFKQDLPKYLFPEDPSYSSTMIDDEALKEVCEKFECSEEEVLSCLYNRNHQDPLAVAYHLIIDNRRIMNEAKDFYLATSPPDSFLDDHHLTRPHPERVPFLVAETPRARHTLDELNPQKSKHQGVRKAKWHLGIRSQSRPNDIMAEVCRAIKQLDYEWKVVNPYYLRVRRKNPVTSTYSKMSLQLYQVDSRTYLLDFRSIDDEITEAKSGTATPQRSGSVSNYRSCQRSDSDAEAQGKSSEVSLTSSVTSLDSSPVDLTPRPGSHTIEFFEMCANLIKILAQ
Experimental: as §1, §2, §3, §4

[4] = molecular target: T4, scanMAX Kinase assay panel (Homo sapiens, UniProt P51617); test: as above; type: binding; settings: IRAK1; 1 uM; read-out: Percent Control (%)
T4 construct: purchased DiscoverX
T4 sequence (P51617 whole entry): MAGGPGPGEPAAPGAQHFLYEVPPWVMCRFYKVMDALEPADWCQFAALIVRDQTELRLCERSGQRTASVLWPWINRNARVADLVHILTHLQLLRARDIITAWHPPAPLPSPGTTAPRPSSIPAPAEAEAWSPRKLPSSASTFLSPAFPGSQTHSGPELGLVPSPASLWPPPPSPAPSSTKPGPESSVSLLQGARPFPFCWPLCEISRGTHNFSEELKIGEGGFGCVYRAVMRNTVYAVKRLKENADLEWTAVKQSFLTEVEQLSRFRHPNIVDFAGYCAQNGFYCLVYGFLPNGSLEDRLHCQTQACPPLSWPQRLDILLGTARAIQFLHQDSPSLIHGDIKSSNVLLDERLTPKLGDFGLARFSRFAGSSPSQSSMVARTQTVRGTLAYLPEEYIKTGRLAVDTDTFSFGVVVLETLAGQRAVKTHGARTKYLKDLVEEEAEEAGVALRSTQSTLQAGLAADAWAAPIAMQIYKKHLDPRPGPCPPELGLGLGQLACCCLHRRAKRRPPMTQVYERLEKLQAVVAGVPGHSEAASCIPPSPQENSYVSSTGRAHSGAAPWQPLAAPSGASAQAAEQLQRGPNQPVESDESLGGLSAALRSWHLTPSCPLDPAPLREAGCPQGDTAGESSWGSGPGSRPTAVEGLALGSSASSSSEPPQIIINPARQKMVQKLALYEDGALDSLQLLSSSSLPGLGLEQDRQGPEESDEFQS
Experimental: as §1, §2, §3, §4

[5] = molecular target: T5, scanMAX Kinase assay panel (Homo sapiens, UniProt P48730); test: as above; type: binding; settings: CSNK1D; 1 uM; read-out: Percent Control (%)
T5 construct: purchased DiscoverX
T5 sequence (P48730 whole entry): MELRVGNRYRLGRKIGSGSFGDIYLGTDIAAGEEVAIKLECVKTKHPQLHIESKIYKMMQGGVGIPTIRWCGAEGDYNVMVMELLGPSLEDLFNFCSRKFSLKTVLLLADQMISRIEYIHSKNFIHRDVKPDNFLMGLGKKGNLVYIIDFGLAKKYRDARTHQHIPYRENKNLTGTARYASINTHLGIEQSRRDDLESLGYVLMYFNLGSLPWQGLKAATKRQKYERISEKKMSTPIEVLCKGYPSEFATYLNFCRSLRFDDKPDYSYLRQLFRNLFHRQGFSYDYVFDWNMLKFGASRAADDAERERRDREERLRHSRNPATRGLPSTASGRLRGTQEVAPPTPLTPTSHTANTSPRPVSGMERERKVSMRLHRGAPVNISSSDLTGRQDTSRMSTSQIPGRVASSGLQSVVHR
Experimental: as §1, §2, §3, §4

SK-MEL-28 = test: Cancer cell proliferation inhibition, MTS assay, 72 hours; type: cell-based; settings: Homo sapiens
How it was run: (§5)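 Cells seeded at 3,000 cells/well in line-specific medium and grown 24 h at 37° C, 5% CO2, then exposed 72 h to serially diluted compound from 50 μM (0.05% DMSO). MTS/PMS added for 2 h at 37° C; OD450 read; IC50 from inhibition versus solvent control, three data sets.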

Ret^Parental (Ba/F3) = test: as above; type: cell-based; settings: Mus musculus, BaF3
How it was run: as §5

Ret^wt (Ba/F3) = molecular target: T6, Ret^wt (Ba/F3) (Homo sapiens, UniProt P07949); test: as above; type: cell-based; settings: read-out: Ret^wt (Ba/F3) IC50
T6 construct: candidates are KIF5B, CCDC6, TEL (ETV6), or none (full-length RET)
T6 sequence (P07949 whole entry, change not shown): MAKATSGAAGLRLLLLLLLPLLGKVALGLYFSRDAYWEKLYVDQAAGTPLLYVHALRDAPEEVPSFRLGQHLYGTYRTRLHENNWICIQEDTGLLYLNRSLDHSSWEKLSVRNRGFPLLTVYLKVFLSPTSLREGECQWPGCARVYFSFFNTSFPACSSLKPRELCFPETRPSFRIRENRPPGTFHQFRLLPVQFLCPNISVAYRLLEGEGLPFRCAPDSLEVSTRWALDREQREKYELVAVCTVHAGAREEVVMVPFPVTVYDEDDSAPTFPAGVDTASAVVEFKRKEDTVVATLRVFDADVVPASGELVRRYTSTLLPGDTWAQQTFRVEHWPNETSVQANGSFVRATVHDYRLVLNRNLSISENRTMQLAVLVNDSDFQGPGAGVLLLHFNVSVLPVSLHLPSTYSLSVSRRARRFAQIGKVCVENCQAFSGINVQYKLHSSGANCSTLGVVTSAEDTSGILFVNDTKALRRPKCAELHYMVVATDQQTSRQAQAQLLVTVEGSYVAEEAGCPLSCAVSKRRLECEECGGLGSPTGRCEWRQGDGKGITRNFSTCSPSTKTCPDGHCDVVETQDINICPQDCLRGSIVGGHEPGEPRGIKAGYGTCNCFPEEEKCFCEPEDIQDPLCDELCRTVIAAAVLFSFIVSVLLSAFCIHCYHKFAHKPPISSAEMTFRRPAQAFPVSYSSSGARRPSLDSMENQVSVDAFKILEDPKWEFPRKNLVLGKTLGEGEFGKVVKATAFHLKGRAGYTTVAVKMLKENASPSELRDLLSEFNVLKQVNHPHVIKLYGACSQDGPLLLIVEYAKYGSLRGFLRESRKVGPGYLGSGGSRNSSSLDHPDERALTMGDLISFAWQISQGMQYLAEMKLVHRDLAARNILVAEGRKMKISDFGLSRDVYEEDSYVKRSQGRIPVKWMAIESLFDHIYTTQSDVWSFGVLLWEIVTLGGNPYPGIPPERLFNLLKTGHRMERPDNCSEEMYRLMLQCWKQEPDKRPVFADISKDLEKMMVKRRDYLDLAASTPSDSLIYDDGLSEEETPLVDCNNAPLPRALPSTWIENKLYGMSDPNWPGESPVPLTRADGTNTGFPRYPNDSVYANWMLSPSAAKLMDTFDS
How it was run: as §5

Huh7 = test: as above; type: cell-based; settings: Homo sapiens, Huh-7
How it was run: as §5

Ret^V804M (Ba/F3) = molecular target: T7, Ret^V804M (Ba/F3) (Homo sapiens, UniProt P07949, V804M, cells depend on it, form not given); test: as above; type: cell-based; settings: read-out: Ret^V804M (Ba/F3) IC50
T7 construct: candidates are KIF5B, CCDC6, TEL (ETV6), or none (full-length RET)
T7 sequence (P07949 whole entry V804M, form open): as the sequence (P07949 whole entry, change not shown) above, with V804M counted along it
How it was run: as §5

FYN (FN) = test: as above; type: cell-based
How it was run: as §5

## Cc1ccc(C(=O)Nc2ccc(CN3CCN(C)CC3)c(C(F)(F)F)c2)cc1C#Cc1cnc2c(Nc3cnn(C)c3)cccn12 [Example 1, 4-methyl-3-((8-((1-methyl-1H-pyrazol-4-yl)amino)imidazo[1,2-a]pyridin-3-yl)ethynyl)-N-(4-((4-methylpiperazin-1-yl)methyl)-3-(trifluoromethyl)phenyl)benzamide]
[1]; JAK1 (JH1domain-catalytic)
  remaining binding at 1 µM: 17%
[1]; JAK1 (JH2domain-pseudokinase)
  remaining binding at 1 µM: 70%
[2]
  remaining binding at 1 µM: 1%
[3]
  remaining binding at 1 µM: 7%
[4]
  remaining binding at 1 µM: 6%
[5]
  remaining binding at 1 µM: 91%
SK-MEL-28
  IC50: 334 nM
Ret^Parental (Ba/F3)
  IC50: 1210 nM
Ret^wt (Ba/F3)
  GI50: 3 nM
Huh7
  IC50: 65 nM
Ret^V804M (Ba/F3)
  GI50: 5 nM

## CCN1CCN(Cc2ccc(NC(=O)c3ccc(C)c(C#Cc4cnc5c(Nc6cnn(C)c6)cccn45)c3)cc2C(F)(F)F)CC1 [Example 8, N-(4-((4-ethylpiperazin-1-yl)methyl)-3-(trifluoromethyl)phenyl)-4-methyl-3-((8-((1-methyl-1H-pyrazol-4-yl)amino)imidazo[1,2-a]pyridin-3-yl)ethynyl)benzamide]
SK-MEL-28
  IC50: 586 nM
Ret^Parental (Ba/F3)
  IC50: 1320 nM
FYN (FN)
  IC50: < 1000 nM
Ret^wt (Ba/F3)
  GI50: 2 nM
Huh7
  IC50: 255 nM
Ret^V804M (Ba/F3)
  GI50: 10 nM

## Cc1ccc(C(=O)Nc2cccc(C(F)(F)F)c2)cc1C#Cc1cnc2c(Nc3cnn(C4CCNCC4)c3)cccn12 [Example 11, 4-methyl-3-((8-((1-(piperidin-4-yl)-1H-pyrazol-4-yl)amino)imidazo[1,2-a]pyridin-3-yl)ethynyl)-N-(3-(trifluoromethyl)phenyl)benzamide]
SK-MEL-28
  IC50: 1460 nM
Ret^Parental (Ba/F3)
  IC50: 2400 nM
FYN (FN)
  IC50: < 100 nM
Ret^wt (Ba/F3)
  GI50: 5 nM
Huh7
  IC50: 1220 nM
Ret^V804M (Ba/F3)
  GI50: 98 nM

## Cc1cn(-c2cc(NC(=O)c3ccc(C)c(C#Cc4cnc5c(Nc6cnn(C)c6)cccn45)c3)cc(C(F)(F)F)c2)cn1 [Example 12, 4-methyl-N-(3-(4-methyl-1H-imidazol-1-yl)-5-(trifluoromethyl)phenyl)-3-((8-((1-methyl-1H-pyrazol-4-yl)amino)imidazo[1,2-a]pyridin-3-yl)ethynyl)benzamide]
[1]; JAK1 (JH1domain-catalytic)
  remaining binding at 1 µM: 78%
[1]; JAK1 (JH2domain-pseudokinase)
  remaining binding at 1 µM: 44%
[2]
  remaining binding at 1 µM: 91%
[3]
  remaining binding at 1 µM: 74%
[4]
  remaining binding at 1 µM: 100%
[5]
  remaining binding at 1 µM: 79%
SK-MEL-28
  IC50: > 10000 nM
FYN (FN)
  IC50: < 100 nM
Ret^wt (Ba/F3)
  GI50: 17 nM
Huh7
  IC50: 147 nM
Ret^V804M (Ba/F3)
  GI50: 54 nM

## Cc1ccc(NC(=O)C2(C(=O)Nc3ccc(F)cc3)CC2)cc1C#Cc1cnc2c(Nc3cnn(C(C)C)c3)cccn12 [Example 78]
[1]; JAK1 (JH1domain-catalytic)
  remaining binding at 1 µM: 92%
[1]; JAK1 (JH2domain-pseudokinase)
  remaining binding at 1 µM: 100%
[2]
  remaining binding at 1 µM: 100%
[3]
  remaining binding at 1 µM: 100%
[4]
  remaining binding at 1 µM: 100%
[5]
  remaining binding at 1 µM: 92%
SK-MEL-28
  IC50: 4550 nM
Huh7
  IC50: 5120 nM
